The source of these data is patent US8461107B2 (Merck Sharp & Dohme Corp., priority 2008, dated 2013).

pKi: −log10 of the molar value.

The target in the experiment is T1, HCV genotype 1b (BK) NS3 modified with a R155K mutation (Hepatitis C virus genotype 1b, UniProt P26663, R1181K).
T1 construct: HCV genotype 1b (BK) NS3 modified with a R155K mutation
Kind of experiment: HCV NS3 protease time-resolved fluorescence (TRF) assay, NS3 protease 1b R155K Ki activity. Type of experiment: biochemical. The following applies: HCV genotype 1b (BK) NS3 with R155K mutation; TRF peptide substrate 100 nM; Ki derived from IC50. The essentials: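 Pre-incubation of NS3/NS4A protease (genotype 1b BK, R155K) with inhibitor for 30 min, then 1 h at room temperature with 100 nM TRF peptide substrate in pH 7.5 HEPES buffer with 10 mM DTT. Reaction quenched with pH 5.5 MES; time-resolved fluorescence read (ex 340/em 615 nm). Ki derived from four-parameter IC50 fit via IC50=Ki(1+[S]/KM).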
One may read the pKi as −log10 of the Ki, conventionally taken in molar units. High values mean a small Ki, low ones a large Ki. `CC[C@@H]1C[C@]1(NC(=O)[C@@H]1C[C@@H]2CN1C(=O)[C@H](C1CCCC1)NC(=O)O[C@@H]1CCC[C@H]1CCCCCn1c(nc3cccc(OC)c3c1=O)O2)C(=O)NS(=O)(=O)C1CC1` [(3aR,7S,10S,12R,25aR)-7-cyclopentyl-N-((1R,2R)-1-{[(cyclopropylsulfonyl)amino]carbonyl}-2-ethylcyclopropyl)-18-methoxy-5,8,19-trioxo-1,2,3,3a,5,6,7,8,11,12,21,22,23,24,25,25a-hexadecahydro-10H,19H-9,12-methanocyclopenta[18,19][1,10,3,6,12]dioxatriazacyclononadecino[11,12-b]quinazoline-10-carboxamide] showed a pKi of 9.00 to 9.30.
Consider `C=C[C@@H]1C[C@]1(NC(=O)[C@@H]1C[C@@H]2CN1C(=O)[C@H](C1CCCC1)NC(=O)O[C@@H]1CCC[C@H]1CCCCCn1c(nc3ccccc3c1=O)O2)C(=O)NS(=O)(=O)C1CC1` [(3aR,7S,10S,12R,25aR)-7-cyclopentyl-N-((1R,2S)-1-{[(cyclopropylsulfonyl)amino]carbonyl}-2-vinylcyclopropyl)-5,8,19-trioxo-1,2,3,3a,5,6,7,8,11,12,21,22,23,24,25,25a-hexadecahydro-10H,19H-9,12-methanocyclopenta[18,19][1,10,3,6,12]dioxatriazacyclononadecino[11,12-b]quinazoline-10-carboxamide], for which the pKi was greater than 10.00.
For `C=C[C@@H]1C[C@]1(NC(=O)[C@@H]1C[C@@H]2CN1C(=O)[C@H](C1CCCC1)NC(=O)O[C@@H]1CCC[C@H]1CCCCCn1c(nc3cc(C(F)(F)F)ccc3c1=O)O2)C(=O)NS(=O)(=O)C1CC1` [(3aR,7S,10S,12R,25aR)-7-cyclopentyl-N-((1R,2S)-1-{[(cyclopropylsulfonyl)amino]carbonyl}-2-vinylcyclopropyl)-5,8,19-trioxo-16-(trifluoromethyl)-1,2,3,3a,5,6,7,8,11,12,21,22,23,24,25,25a-hexadecahydro-10H,19H-9,12-methanocyclopenta[18,19][1,10,3,6,12]dioxatriazacyclononadecino[11,12-b]quinazoline-10-carboxamide], the negative logarithm of the Ki (pKi) was 9.30 to 10.00.
Compound `C=C[C@@H]1C[C@]1(NC(=O)[C@@H]1C[C@@H]2CN1C(=O)[C@H](C1CCCC1)NC(=O)O[C@@H]1CCC[C@H]1CCCCCn1c(nc3c(OC)cccc3c1=O)O2)C(=O)NS(=O)(=O)C1CC1` [(3aR,7S,10S,12R,25aR)-7-cyclopentyl-N-((1R,2S)-1-{[(cyclopropylsulfonyl)amino]carbonyl}-2-vinylcyclopropyl)-15-methoxy-5,8,19-trioxo-1,2,3,3a,5,6,7,8,11,12,21,22,23,24,25,25a-hexadecahydro-10H,19H-9,12-methanocyclopenta[18,19][1,10,3,6,12]dioxatriazacyclononadecino[11,12-b]quinazoline-10-carboxamide] had a pKi greater than 10.00.
Consider `C=C[C@@H]1C[C@]1(NC(=O)[C@@H]1C[C@@H]2CN1C(=O)[C@H](C1CCCC1)NC(=O)O[C@@H]1CCC[C@H]1CCCCCn1c(nc3cc(OC)ccc3c1=O)O2)C(=O)NS(=O)(=O)C1CC1` [(3aR,7S,10S,12R,25aR)-7-cyclopentyl-N-((1R,2S)-1-{[(cyclopropylsulfonyl)amino]carbonyl}-2-vinylcyclopropyl)-16-methoxy-5,8,19-trioxo-1,2,3,3a,5,6,7,8,11,12,21,22,23,24,25,25a-hexadecahydro-10H,19H-9,12-methanocyclopenta[18,19][1,10,3,6,12]dioxatriazacyclononadecino[11,12-b]quinazoline-10-carboxamide], for which the pKi is greater than 10.00.
For the compound `C=C[C@@H]1C[C@]1(NC(=O)[C@@H]1C[C@@H]2CN1C(=O)[C@H](C1CCCC1)NC(=O)O[C@@H]1CCC[C@H]1CCCCCn1c(cc3cc(OC)ccc3c1=O)O2)C(=O)NS(=O)(=O)C1CC1` [(3aR,7S,10S,12R,25aR)-7-cyclopentyl-N-((1R,2S)-1-{[(cyclopropylsulfonyl)amino]carbonyl}-2-vinylcyclopropyl)-16-methoxy-5,8,19-trioxo-1,2,3,3a,5,6,7,8,11,12,21,22,23,24,25,25a-hexadecahydro-10H,19H-9,12-methanocyclopenta[18,19][1,10,3,6,12]dioxatriazacyclononadecino[12,11-b]isoquinoline-10-carboxamide], the pKi is greater than 10.00.
Next, `C=C[C@@H]1C[C@]1(NC(=O)[C@@H]1C[C@@H]2CN1C(=O)[C@H](C1CCCC1)NC(=O)O[C@@H]1CCC[C@H]1CCCCCn1c(nc3cc(C)ccc3c1=O)O2)C(=O)NS(=O)(=O)C1CC1` [(3aR,7S,10S,12R,25aR)-7-cyclopentyl-N-((1R,2S)-1-{[(cyclopropylsulfonyl)amino]carbonyl}-2-vinylcyclopropyl)-16-methyl-5,8,19-trioxo-1,2,3,3a,5,6,7,8,11,12,21,22,23,24,25,25a-hexadecahydro-10H,19H-9,12-methanocyclopenta[18,19][1,10,3,6,12]dioxatriazacyclononadecino[11,12-b]quinazoline-10-carboxamide]: greater than 10.00; `C=C[C@@H]1C[C@]1(NC(=O)[C@@H]1C[C@@H]2CN1C(=O)[C@H](C1CCCC1)NC(=O)O[C@@H]1CCC[C@H]1CCCCCn1c(cc3ccc(F)cc3c1=O)O2)C(=O)NS(=O)(=O)C1CC1` [(3aR,7S,10S,12R,25aR)-7-cyclopentyl-N-((1R,2S)-1-{[(cyclopropylsulfonyl)amino]carbonyl}-2-vinylcyclopropyl)-17-fluoro-5,8,19-trioxo-1,2,3,3a,5,6,7,8,11,12,21,22,23,24,25,25a-hexadecahydro-10H,19H-9,12-methanocyclopenta[18,19][1,10,3,6,12]dioxatriazacyclononadecino[12,11-b]isoquinoline-10-carboxamide]: greater than 10.00; `C=C[C@@H]1C[C@]1(NC(=O)[C@@H]1C[C@@H]2CN1C(=O)[C@H](C1CCCC1)NC(=O)O[C@@H]1CCC[C@H]1CCCCCn1c(nc3cccc(OC)c3c1=O)O2)C(=O)NS(=O)(=O)C1CC1` [(3aR,7S,10S,12R,25aR)-7-cyclopentyl-N-((1R,2S)-1-{[(cyclopropylsulfonyl)amino]carbonyl}-2-vinylcyclopropyl)-18-methoxy-5,8,19-trioxo-1,2,3,3a,5,6,7,8,11,12,21,22,23,24,25,25a-hexadecahydro-10H,19H-9,12-methanocyclopenta[18,19][1,10,3,6,12]dioxatriazacyclononadecino[11,12-b]quinazoline-10-carboxamide]: 9.30 to 10.00.
Next, `C=C[C@@H]1C[C@]1(NC(=O)[C@@H]1C[C@@H]2CN1C(=O)[C@H](C(C)(C)C)NC(=O)O[C@@H]1CCC[C@H]1CCCCCn1c(cc3cc(Cl)ccc3c1=O)O2)C(=O)NS(=O)(=O)C1CC1` [(3aR,7S,10S,12R,25aR)-7-tert-butyl-16-chloro-N-((1R,2S)-1-{[(cyclopropylsulfonyl)amino]carbonyl}-2-vinylcyclopropyl)-5,8,19-trioxo-1,2,3,3a,5,6,7,8,11,12,21,22,23,24,25,25a-hexadecahydro-10H,19H-9,12-methanocyclopenta[18,19][1,10,3,6,12]dioxatriazacyclononadecino[12,11-b]isoquinoline-10-carboxamide]: greater than 10.00.
Next, `CC[C@@H]1C[C@]1(NC(=O)[C@@H]1C[C@@H]2CN1C(=O)[C@H](C(C)(C)C)NC(=O)O[C@@H]1CCC[C@H]1CCCCCn1c(cc3cc(OC)ccc3c1=O)O2)C(=O)NS(=O)(=O)C1CC1` [(3aR,7S,10S,12R,25aR)-7-tert-butyl-N-((1R,2R)-1-{[(cyclopropylsulfonyl)amino]carbonyl}-2-ethylcyclopropyl)-16-methoxy-5,8,19-trioxo-1,2,3,3a,5,6,7,8,11,12,21,22,23,24,25,25a-hexadecahydro-10H,19H-9,12-methanocyclopenta[18,19][1,10,3,6,12]dioxatriazacyclononadecino[12,11-b]isoquinoline-10-carboxamide]: 9.30 to 10.00.
`C=C[C@@H]1C[C@]1(NC(=O)[C@@H]1C[C@@H]2CN1C(=O)[C@H](C(C)(C)C)NC(=O)O[C@@H]1CCC[C@H]1CCCCCn1c(cc3cc(OC)ccc3c1=O)O2)C(=O)NS(=O)(=O)C1CC1` [(3aR,7S,10S,12R,25aR)-7-tert-butyl-N-((1R,2S)-1-{[(cyclopropylsulfonyl)amino]carbonyl}-2-vinylcyclopropyl)-16-methoxy-5,8,19-trioxo-1,2,3,3a,5,6,7,8,11,12,21,22,23,24,25,25a-hexadecahydro-10H,19H-9,12-methanocyclopenta[18,19][1,10,3,6,12]dioxatriazacyclononadecino[12,11-b]isoquinoline-10-carboxamide] showed a pKi greater than 10.00.
In the case of `C=C[C@@H]1C[C@]1(NC(=O)[C@@H]1C[C@@H]2CN1C(=O)[C@H](C1CCCC1)NC(=O)O[C@@H]1CCC[C@H]1CCCCCn1c(nc3cc(Br)ccc3c1=O)O2)C(=O)NS(=O)(=O)C1CC1` [(3aR,7S,10S,12R,25aR)-16-bromo-7-cyclopentyl-N-((1R,2S)-1-{[(cyclopropylsulfonyl)amino]carbonyl}-2-vinylcyclopropyl)-5,8,19-trioxo-1,2,3,3a,5,6,7,8,11,12,21,22,23,24,25,25a-hexadecahydro-10H,19H-9,12-methanocyclopenta[18,19][1,10,3,6,12]dioxatriazacyclononadecino[11,12-b]quinazoline-10-carboxamide], the pKi was 9.30 to 10.00.
Compound `CC[C@@H]1C[C@]1(NC(=O)[C@@H]1C[C@@H]2CN1C(=O)[C@H](C1CCCCC1)NC(=O)O[C@@H]1CCC[C@H]1CCCCCn1c(cc3cc(Cl)ccc3c1=O)O2)C(=O)NS(=O)(=O)C1CC1` [(3aR,7S,10S,12R,25aR)-16-chloro-7-cyclohexyl-N-((1R,2R)-1-{[(cyclopropylsulfonyl)amino]carbonyl}-2-ethylcyclopropyl)-5,8,19-trioxo-1,2,3,3a,5,6,7,8,11,12,21,22,23,24,25,25a-hexadecahydro-10H,19H-9,12-methanocyclopenta[18,19][1,10,3,6,12]dioxatriazacyclononadecino[12,11-b]isoquinoline-10-carboxamide] showed a pKi of 9.30 to 10.00.
